Where a name gives a salt, the structure may show the parent alone.
System: 60 Human Cancer Cell Lines (NCI-60)
Experiment: Broad-spectrum anticancer activity (NCI-60, SRB)
Format: cell-based
Settings: mean against leukemia, NSCLC, colon, CNS, melanoma, ovarian, renal, prostate and breast cancer, 48 h, read-out: mean pIC50 (converted)
Experimental: Broad-spectrum anticancer activities were conducted by NCI/NIH following standard protocols.
Human tumor cell lines were grown in RPMI 1640 medium containing 5% fetal bovine serum and 2 mM L-glutamine. For a typical screening experiment, cells were inoculated into 96-well microtiter plates in 100 μL at the plating densities ranging from 5,000 to 40,000 cells/well depending on the doubling time of individual cell lines. After cell inoculation, the microtiter plates were incubated at 37° C., 5% CO2, 95% air and 100% relative humidity for 24 h prior to addition of experimental drugs. […]
Following drug addition, the plates were incubated for an additional 48 h at 37° C., 5% CO2, 95% air, and […]. […] Bound stain was subsequently solubilized with 10 mM trizma base, and the absorbance was read on an automated plate reader at a wavelength of 515 nm. […] Using the seven absorbance measurements [time zero, (Tz), control growth, (C), and test growth in the presence of drug at the five concentration levels (Ti)], the percentage growth was calculated at each of the drug concentrations levels. Percentage growth inhibition was calculated as: [(Ti−Tz)/(C−Tz)]×100 for concentrations for which Ti>/=Tz [(Ti−Tz)/Tz]×100 for concentrations for which Ti<Tz.
Three dose response parameters were calculated for each experimental agent. […]

In the case of O=c1[nH]/c(=C\c2ccc(OCc3ccncc3)cn2)c(=O)[nH]/c1=C\c1ccccc1 [Compound 2, 3-benzylidene-6-((5-(pyridin-4-ylmethoxy)pyridin-2-yl)methylene)piperazine-2,5-dione methanesulfonic acid salt], the IC50 is reported as 52.5 nM.

Source: US8710062B2, “Piperazinedione compounds” (Taipei Medical University, priority 2011, dated 2014)
